Legend:
[1] = tested on: breast and lung cancer cells; conditions: several types of breast and lung cancer cells; cited from earlier work
cdk2 = conditions: cited from earlier work
cdk4 = conditions: cited from earlier work
c-Src = biological target: T1, c-Src (Homo sapiens, UniProt P12931); assay: c-Src kinase assay, 32P incorporation into polyglutamate-tyrosine; format: biochemical; conditions: 5 μM ATP
T1 construct: made in house; host or cells: baculovirus infected insect cells
Experimental: Other Kinases. c-Src kinase is purified from baculovirus infected insect cell lysates using an antipeptide monoclonal antibody directed against the N-terminal 2-17 amino acids as described previously by Fry, et al., Anticancer Drug Design, 1994;9:331-351. Protein kinase C (PKC.) is obtained as a rat brain preparation from Promega.
c-Src. The antibody, covalently linked to 0.65-μm latex beads, is added to a suspension of insect cell lysis buffer comprised of 150 mM NaCl, 50 mM Tris pH 7.5, 1 mM DTT, 1% NP-40, 2 mM EGTA, 1 mM sodium vanadate, 1 mM PMSF, 1 μg/mL each of leupeptin, pepstatin, and aprotinin. Insect cell lysate containing the c-Src protein is incubated with these beads for 3 to 4 hours at 4° C. with rotation. At the end of the lysate incubation, the beads are rinsed three times in lysis buffer, resuspended in lysis buffer containing 10% glycerol, and frozen. These latex beads are thawed, rinsed three times in assay buffer which is comprised of 40 mM tris pH 7.5, 5 mM magnesium chloride, and suspended in the same buffer. In a Millipore 96-well plate with a 0.65 μm polyvinylidine membrane bottom are added the reaction components: 10-μL c-Src beads, 10 μL of 2.5 mg/mL polyglutamate-tyrosine substrate, 5 μM ATP containing 0.2 μCi labeled ^32 P-ATP, 5 μL DMSO containing inhibitors or as a solvent control, and buffer to make the final volume 125 μL. The reaction is started at room temperature by addition of the ATP and quenched 10 minutes later by the addition of 125 μL of 30% TCA, 0.1 M sodium pyrophosphate for 15 minutes on ice. The plate is then filtered and the wells washed with two 250-μL aliquots of 15% TCA, 0.1 M pyrophosphate. The filters are punched, counted in a liquid scintillation counter, and the data examined for inhibitory activity in comparison to a known inhibitor such as erbstatin. The method is described more fully in J. Med. Chem., 1994;37:598-609.

insulin receptor (INSr) = biological target: T2, insulin receptor (INSr) (Homo sapiens, UniProt P06213); assay: Insulin receptor (INSr) kinase assay; format: biochemical; conditions: 10 mM manganese chloride
T2 construct: An assay using the intracellular kinase domains of insulin receptor (INSr)
Experimental: EGFr. Enzyme assays for IC50 determinations are performed in 96-well filter plates (Millipore MADVN6550). The total volume is 0.1 mL containing 20 mM Hepes, pH 7.4, 50 μM sodium vanadate, 40 mM magnesium chloride, 10 μM ATP containing 0.5 μCi of [^32 P]ATP, 20 μg of polyglutamic acid/tyrosine (Sigma Chemical Co., St. Louis, Mo.), 10 ng of EGF receptor tyrosine kinase and appropriate dilutions of inhibitor. All components except the ATP are added to the well, and the plate is incubated with shaking for 10 minutes at 25° C. The reaction is started by adding [^32 P]ATP, and the plate is incubated at 25° C. for 10 minutes. The reaction is terminated by addition of 0.1 mL of 20% trichloroacetic acid (TCA). The plate is kept at 4° C. for at least 15 minutes to allow the substrate to precipitate. The wells are then washed five times with 0.2 mL of 10% TCA, and ^32 P incorporation is determined with a Wallac beta plate counter.
Other Kinases. An assay using the intracellular kinase domains of insulin receptor (INSr) is performed as described for the EGF receptor except that 10 mM manganese chloride is included in the reaction. The PKC assay is performed as previously described by Martiny-Baron, et al., J. Biol. Chem., 1993;268:9194-9197.

[2] = biological target: T3, FGFr (human FGF-1 (flg) receptor tyrosine kinase) (Homo sapiens, UniProt P11362); assay: FGFr tyrosine kinase assay, 32P incorporation into glutamate-tyrosine copolymer; format: biochemical; conditions: 50 μM ATP; read-out: FGFr IC50
T3 construct: PCR primers are designed to amplify a fragment of DNA that codes for the intracellular tyrosine kinase domain; made in house; host or cells: Sf9 insect cells (baculovirus), cell lysate
Experimental: (§1) Platelet Derived Growth Factor Receptor (PDGFr) and Fibroblast Growth Factor Receptor (FGFr). Full length cDNAs for the mouse PDGF-β and human FGF-1 (flg) receptor tyrosine kinases were obtained from J. Escobedo and are prepared as described in J. Biol. Chem., 1991;262:1482-1487. PCR primers are designed to amplify a fragment of DNA that codes for the intracellular tyrosine kinase domain. The fragment is melded into a baculovirus vector, cotransfected with AcMNPV DNA, and the recombinant virus isolated. SF9 insect cells are infected with the virus to overexpress the protein, and the cell lysate is used for the assay.
(§2) PDGFr and FGFr. […] Briefly, to each well is added 82.5 μL of incubation buffer containing 25 mM Hepes (pH 7.0), 150 mM NaCl, 0.1% Triton X-100, 0.2 mM PMSF, 0.2 mM sodium vanadate, 10 mM manganese chloride, and 750 μg/mL of poly (4:1) glutamate-tyrosine followed by 2.5 μL of inhibitor and 5 μL of enzyme lysate (7.5 μg/μL FGFR-TK or 6.0 μg/μL PDGFR-TK) to initiate the reaction. Following a 10 minute incubation at 25° C., 10 μL of [γ^32 P]ATP (0.4 μCi plus 50 μM ATP) is added to each well, and samples are incubated for an additional 10 minutes at 25° C. The reaction is terminated by the addition of 100 μL of 30% trichloroacetic acid (TCA) containing 20 mM sodium pyrophosphate and precipitation of material onto glass fiber filter mats (Wallac). […] Nonspecific activity is defined as radioactivity retained on the filters following incubation of samples with buffer alone; (no enzyme). Specific enzymatic activity is defined as total activity (enzyme plus buffer) minus nonspecific activity.

[3] = biological target: T4, PDGFr (mouse PDGF-β receptor tyrosine kinase) (Mus musculus, UniProt P05622); assay: PDGFr tyrosine kinase assay, 32P incorporation into glutamate-tyrosine copolymer; format: biochemical; conditions: 50 μM ATP
T4 construct: PCR primers are designed to amplify a fragment of DNA that codes for the intracellular tyrosine kinase domain; made in house; host or cells: Sf9 insect cells (baculovirus), cell lysate
Experimental: as §1, §2

cdk4/cyclinD = cdk4/cyclinD (Homo sapiens, UniProt P11802); assay: Cyclin-Dependent Kinase 4 (cdk4/cyclinD) Assay; format: biochemical; conditions: 25 μM ATP, retinoblastoma substrate
Experimental: Cyclin-Dependent Kinase 4 (cdk4/cyclinD) Assay
Enzyme assays for IC50 determinations and kinetic evaluation were performed in 96-well filter plates (Millipore MADVN6550). The total volume was 0.1 mL containing a final concentration of 20 mM TRIS (tris[hydroxymethyl]aminomethane), at pH 7.4, 50 mM NaCl, 1 mM dithiothreitol, 10 mM MgCl2, 25 μM ATP containing 0.25 μCi of [^32 P]ATP, 20 ng of cdk4/cyclinD, 1 μg of retinoblastoma, and appropriate dilutions of a compound of the present invention. All components except the ATP were added to the wells, and the plate was placed on a plate mixer for 2 minutes. The reaction was started by adding [^32 P]ATP and the plate was incubated at 25° C. for 15 minutes. The reaction was terminated by addition of 0.1 mL of 20% trichloroacetic acid (TCA). The plate was kept at 4° C. for at least 1 hour to allow the substrate to precipitate. The wells were then washed 5 times with 0.2 mL of 10% TCA and ^32 P incorporation was determined with a beta plate counter (Wallace Inc., Gaithersburg, Md.).

cdk2/cyclinE = cdk2/cyclinE (Homo sapiens, UniProt P24941); assay: Cyclin-Dependent Kinase Assay, cdk2/cyclinE; format: biochemical; conditions: retinoblastoma substrate
Experimental: (§3) Cyclin-Dependent Kinase Assays (cdk2/cyclinE, cdk2/cyclinA, cdkl/cyclinB)
(§4) All components except the ATP were added to the wells, and the plate was placed on a plate mixer for 2 minutes. The reaction was begun by addition of [^32 P]ATP, and the plate was incubated at 25° C. for 15 minutes. The reaction was terminated by addition of 0.1 mL of 20% TCA. The plate was kept at 4° C. for least 1 hour to allow the substrate to precipitate. The wells were then washed 5 times with 0.2 mL of 10% TCA and ^32 P incorporation determined with a beta plate counter (Wallace Inc., Gaithersburg, Md.).

cdk2/cyclinA = cdk2/cyclinA (Homo sapiens, UniProt P24941); assay: Cyclin-Dependent Kinase Assay, cdk2/cyclinA; format: biochemical; conditions: 12 mM ATP, retinoblastoma substrate
Experimental: as §3, §4

cdk1/cyclinB = cdk1/cyclinB (Homo sapiens, UniProt P06493); assay: Cyclin-Dependent Kinase Assay, cdk1/cyclinB; format: biochemical; conditions: 12 mM ATP, retinoblastoma substrate
Experimental: as §3, §4

human tumor cell lines = conditions: approximately 60 NCI human tumor cell lines; cited from earlier work

Chain of cdk1/cyclinB (P06493 whole entry, species assumed): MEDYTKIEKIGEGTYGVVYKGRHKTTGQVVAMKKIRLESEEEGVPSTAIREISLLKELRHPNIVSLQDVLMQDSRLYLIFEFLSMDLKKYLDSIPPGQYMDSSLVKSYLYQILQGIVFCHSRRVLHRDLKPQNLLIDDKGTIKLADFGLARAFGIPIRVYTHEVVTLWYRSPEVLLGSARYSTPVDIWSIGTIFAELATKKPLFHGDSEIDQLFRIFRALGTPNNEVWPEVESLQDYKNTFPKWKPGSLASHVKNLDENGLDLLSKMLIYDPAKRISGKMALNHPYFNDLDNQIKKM
Chain of cdk1/cyclinB (P14635 whole entry partner, species assumed): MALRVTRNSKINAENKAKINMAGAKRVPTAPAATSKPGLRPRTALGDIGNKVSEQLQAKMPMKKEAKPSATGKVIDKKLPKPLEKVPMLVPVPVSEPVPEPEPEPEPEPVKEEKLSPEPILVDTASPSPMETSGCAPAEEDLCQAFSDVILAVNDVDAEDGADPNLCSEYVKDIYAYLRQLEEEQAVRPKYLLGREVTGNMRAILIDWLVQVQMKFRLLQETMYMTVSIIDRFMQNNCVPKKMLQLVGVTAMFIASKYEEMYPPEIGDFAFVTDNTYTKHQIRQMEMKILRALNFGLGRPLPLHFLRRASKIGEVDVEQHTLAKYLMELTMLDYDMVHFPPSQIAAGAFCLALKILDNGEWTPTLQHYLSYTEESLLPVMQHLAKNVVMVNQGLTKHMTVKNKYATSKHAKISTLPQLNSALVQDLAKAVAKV
T1 sequence (P12931 whole entry, species assumed): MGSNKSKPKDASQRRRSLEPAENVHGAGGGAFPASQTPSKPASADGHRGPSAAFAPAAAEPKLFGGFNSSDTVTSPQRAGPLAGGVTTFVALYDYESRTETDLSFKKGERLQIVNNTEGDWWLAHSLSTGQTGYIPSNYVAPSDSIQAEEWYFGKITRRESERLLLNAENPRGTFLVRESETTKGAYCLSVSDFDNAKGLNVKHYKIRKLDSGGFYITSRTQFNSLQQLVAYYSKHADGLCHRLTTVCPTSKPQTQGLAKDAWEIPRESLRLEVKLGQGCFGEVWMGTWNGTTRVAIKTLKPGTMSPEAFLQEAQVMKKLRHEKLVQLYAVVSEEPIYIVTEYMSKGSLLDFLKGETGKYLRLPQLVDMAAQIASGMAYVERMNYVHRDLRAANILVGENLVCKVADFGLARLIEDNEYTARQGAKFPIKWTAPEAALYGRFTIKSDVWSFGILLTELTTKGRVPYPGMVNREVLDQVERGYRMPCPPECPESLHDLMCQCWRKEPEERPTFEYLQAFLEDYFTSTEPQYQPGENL
Chain of cdk4/cyclinD (P11802 whole entry, species assumed): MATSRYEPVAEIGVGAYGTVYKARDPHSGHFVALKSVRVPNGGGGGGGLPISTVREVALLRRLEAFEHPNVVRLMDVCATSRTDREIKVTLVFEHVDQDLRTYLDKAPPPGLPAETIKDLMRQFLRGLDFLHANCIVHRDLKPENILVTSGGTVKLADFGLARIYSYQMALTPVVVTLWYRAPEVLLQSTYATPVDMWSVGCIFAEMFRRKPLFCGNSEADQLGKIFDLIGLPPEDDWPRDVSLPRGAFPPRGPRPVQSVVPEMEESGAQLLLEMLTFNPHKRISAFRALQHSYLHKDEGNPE
Chain of cdk4/cyclinD (P24385 whole entry partner, species assumed): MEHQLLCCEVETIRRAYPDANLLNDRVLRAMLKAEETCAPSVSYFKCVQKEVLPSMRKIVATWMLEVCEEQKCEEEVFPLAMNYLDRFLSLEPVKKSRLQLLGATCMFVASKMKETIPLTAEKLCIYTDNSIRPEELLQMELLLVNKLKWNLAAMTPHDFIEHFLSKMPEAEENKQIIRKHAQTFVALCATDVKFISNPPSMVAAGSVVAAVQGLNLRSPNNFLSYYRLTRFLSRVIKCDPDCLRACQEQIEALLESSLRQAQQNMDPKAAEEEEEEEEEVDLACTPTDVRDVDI
T4 sequence (P05622 599-961 limits assumed): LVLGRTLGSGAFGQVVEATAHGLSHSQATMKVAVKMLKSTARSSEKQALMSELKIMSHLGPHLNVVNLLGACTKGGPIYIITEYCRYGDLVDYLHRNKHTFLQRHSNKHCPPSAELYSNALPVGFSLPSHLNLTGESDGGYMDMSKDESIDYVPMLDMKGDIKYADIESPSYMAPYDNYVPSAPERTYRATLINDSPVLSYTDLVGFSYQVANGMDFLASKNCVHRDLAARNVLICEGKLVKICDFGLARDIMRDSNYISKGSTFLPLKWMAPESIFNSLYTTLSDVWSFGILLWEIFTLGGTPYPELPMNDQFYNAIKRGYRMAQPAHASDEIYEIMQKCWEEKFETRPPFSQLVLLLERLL
T3 sequence (P11362 478-767 limits assumed): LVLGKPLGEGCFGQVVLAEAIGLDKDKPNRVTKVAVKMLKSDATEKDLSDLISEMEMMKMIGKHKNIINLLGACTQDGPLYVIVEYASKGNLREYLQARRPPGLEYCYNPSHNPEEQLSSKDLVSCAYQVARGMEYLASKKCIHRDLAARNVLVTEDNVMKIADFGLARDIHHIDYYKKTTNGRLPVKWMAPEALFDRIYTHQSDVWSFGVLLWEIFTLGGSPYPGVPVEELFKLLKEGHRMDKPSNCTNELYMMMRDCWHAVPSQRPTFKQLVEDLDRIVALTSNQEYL
T2 sequence (P06213 1023-1298 limits assumed, species assumed): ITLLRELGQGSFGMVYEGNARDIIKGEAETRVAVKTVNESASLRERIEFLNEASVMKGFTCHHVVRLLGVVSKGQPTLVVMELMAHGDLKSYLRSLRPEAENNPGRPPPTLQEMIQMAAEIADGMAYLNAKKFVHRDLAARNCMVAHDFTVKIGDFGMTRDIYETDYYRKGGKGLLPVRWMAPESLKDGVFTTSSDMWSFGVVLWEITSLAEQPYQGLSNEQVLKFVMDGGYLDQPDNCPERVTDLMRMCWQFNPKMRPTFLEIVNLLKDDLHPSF

SMILES: CN1CC[C@H](c2c(O)cc(O)c3c(=O)cc(-c4ccccc4Cl)oc23)[C@H](O)C1 [flavopiridol]
- inhibition of breast and lung cancer cells [1]: potent inhibitor of several types of breast and lung cancer cells
- inhibition of cdk2 (cdk2): shown to inhibit cdk2 and cdk4
- inhibition of cdk4 (cdk4): shown to inhibit cdk2 and cdk4

SMILES: CN(C)c1cc2c(cn1)cc(-c1c(Cl)cccc1Cl)c(=O)n2C [Example C, 3-(2,6-dichlorophenyl)-7-dimethylamino-1-methyl-1H -[1,6]naphthyridin-2-one]
- IC50 (c-Src): > 50 µM
- IC50 (insulin receptor (INSr)): > 50 µM

SMILES: CCn1c(=O)ccc2cnc(Nc3ccc(N4CCCCC4)cc3)cc21 [Example AA, 1-ethyl-7-(4-(piperidin-1-yl)phenylamino)-1H -[1,6]naphthyridin-2-one]
- IC50 (c-Src): < 50 µM
- IC50 [2]: 12.4 µM
- IC50 [3]: > 50 µM
- IC50 (cdk4/cyclinD): 1.5 µM
- IC50 (cdk2/cyclinE): 5 µM

SMILES: CCn1c(=O)ccc2cnc(Nc3ccc(N4CCN(C)CC4)cc3)cc21 [Example Y, 1-ethyl-7-[4-(4-methylpiperazin-1-yl)phenylamino]-1H-[1,6]naphthyridin-2-one]
- IC50 (c-Src): 11.4 µM
- IC50 [2]: 1.4 µM
- IC50 [3]: 5.6 µM
- IC50 (cdk4/cyclinD): 0.35 µM
- IC50 (cdk2/cyclinE): 5.8 µM
- IC50 (cdk2/cyclinA): 3.5 µM
- IC50 (cdk1/cyclinB): 7.4 µM

SMILES: Cn1cnc2c(NCc3ccccc3)nc(NCCO)nc21 [Olomoucine, 2-(hydroxyethylamine)-6-benzylamine-9-methylpurine]
- inhibition of cdk2 (cdk2): potent inhibitor of cdk2 and cdk5
- inhibition of proliferation of human tumor cell lines (human tumor cell lines): shown to inhibit proliferation of approximately 60 different human tumor cell lines

SMILES: CCn1c(=O)ccc2cnc(Nc3ccccc3)cc21 [Example W, 1-ethyl-7-phenylamino-1H-[1,6]naphthyridin-2-one]
- IC50 (c-Src): > 50 µM
- IC50 [2]: 17 µM
- IC50 [3]: > 50 µM
- IC50 (cdk4/cyclinD): 4.2 µM
- IC50 (cdk2/cyclinE): 1.1 µM
- IC50 (cdk2/cyclinA): 0.88 µM
- IC50 (cdk1/cyclinB): 1.9 µM

SMILES: CCn1c(=O)ccc2cnc(Nc3ccc(N4CCOCC4)cc3)cc21 [Example Z, 1-ethyl-7-(4-(morpholin-4-yl)phenylamino)-1H -[1,6]naphthyridin-2-one]
- IC50 (c-Src): 31 µM
- IC50 [2]: 5.7 µM
- IC50 [3]: > 50 µM
- IC50 (cdk4/cyclinD): 1.35 µM
- IC50 (cdk2/cyclinE): 3 µM
- IC50 (cdk2/cyclinA): 1.4 µM
- IC50 (cdk1/cyclinB): 4 µM

SMILES: CCn1c(=O)ccc2cnc(Nc3ccc(OC)cc3)cc21 [Example X, 1-ethyl-7-(4-methoxyphenylamino)-1H-[1,6]naphthyridin-2-one]
- IC50 (c-Src): > 50 µM
- IC50 [2]: 10.4 µM
- IC50 [3]: 5 to 50 µM
- IC50 (cdk4/cyclinD): 2.6 µM
- IC50 (cdk2/cyclinE): 1.3 µM
- IC50 (cdk2/cyclinA): 0.83 µM
- IC50 (cdk1/cyclinB): 1.5 µM
